Source: patent US8019412B2, “Apparatus for facilitating transdermal delivery of therapeutic substances and method of transdermally delivering therapeutic substances” (International Scientific Pty Ltd., priority 2003, dated 2011)

System: excised human epidermal membranes
Type: in vitro ADME
Description: In an experimental example, penetration of caffeine through excised human epidermal membranes was investigated using Franz-type diffusion cells and standard procedures. An electromagnetic field pattern was created and the penetration results compared with passive diffusion. The electromagnetic field pattern used was generated by applying an energisation signal having 12 pulses at a repeating frequency of 10 Hz to a coil Each of the pulses has a duration of approximately 360 μs. A phosphate buffered saline receptor solution was used and the amount of caffeine in the receptor solution determined by HPLC with UV detection at regular time intervals up to 6 hours post application of the electromagnetic field. In this example, the electromagnetic field pattern was applied for approximately 30 minutes.
Similar experiments were carried out with electromagnetic fields generated by applying an energisation signal having 15 pulses of 360 μs duration at a repeating frequency of 20 Hz to a coil, and by applying an energisation signal having 255 pulses at a repeating frequency of 2 Hz to a coil. These experiments yielded caffeine flux values of 7.20 μgcm^−2h^−1 and 8.51 μgcm^−2h^−1, although the latter of these experiments produced an effect only after 60 minutes.
A further experiment was carried out by applying an energisation signal having a single quasi-rectangular pulse repeated at 72 Hz to a coil.

Cn1c(=O)c2c(ncn2C)n(C)c1=O [caffeine]
caffeine flux associated with passive diffusion: ~4.1 μgcm^−2h^−1 | highest caffeine flux achieved with electromagnetic field pattern: 19.24 μgcm^−2h^−1 | time after which an effect was produced: ≥ 60 min
